Laboratory results: PubChem BioAssay AID1259407 (Chemical Carcinogenesis Research Information System (CCRIS), 2018)
Active and inactive are the calls of the source. The rule behind the calls is not given here.

System: CCRIS mutagenicity, Ames/micronucleus/aberration tests
Experiment: CCRIS mutagenicity studies
[1] = Test System: AMES SALMONELLA TYPHIMURIUM, Strain/Indicator: TA98, Metabolic Activation: NONE, Method: PREINCUBATION
[2] = Test System: AMES SALMONELLA TYPHIMURIUM, Strain/Indicator: TA98(1,8-DNP6), Metabolic Activation: NONE, Method: STANDARD PLATE
[3] = Test System: AMES SALMONELLA TYPHIMURIUM, Strain/Indicator: TA98(NR), Metabolic Activation: NONE, Method: STANDARD PLATE
[4] = Test System: AMES SALMONELLA TYPHIMURIUM, Strain/Indicator: TA98, Metabolic Activation: NONE, Method: STANDARD PLATE
[5] = Test System: AMES SALMONELLA TYPHIMURIUM, Strain/Indicator: TA100, Metabolic Activation: NONE, Method: STANDARD PLATE
[6] = Test System: AMES SALMONELLA TYPHIMURIUM, Strain/Indicator: TA7001, Metabolic Activation: NONE, Method: PREINCUBATION
[7] = Test System: AMES SALMONELLA TYPHIMURIUM, Strain/Indicator: TA7002, Metabolic Activation: NONE, Method: PREINCUBATION
[8] = Test System: AMES SALMONELLA TYPHIMURIUM, Strain/Indicator: TA7003, Metabolic Activation: NONE, Method: PREINCUBATION
[9] = Test System: AMES SALMONELLA TYPHIMURIUM, Strain/Indicator: TA7004, Metabolic Activation: NONE, Method: PREINCUBATION
[10] = Test System: AMES SALMONELLA TYPHIMURIUM, Strain/Indicator: TA7005, Metabolic Activation: NONE, Method: PREINCUBATION
[11] = Test System: AMES SALMONELLA TYPHIMURIUM, Strain/Indicator: TA7006, Metabolic Activation: NONE, Method: PREINCUBATION
[12] = Test System: AMES SALMONELLA TYPHIMURIUM, Strain/Indicator: TA1538, Metabolic Activation: NONE, Method: STANDARD PLATE

## COC(=O)C1=C(C)NC(COC(N)=O)=C(C(=O)OC(C)C)C1c1cccc(Cl)c1Cl (configuration not stated)
[1]
  mutagenic call: inactive; negative
Test System: AMES SALMONELLA TYPHIMURIUM, Strain/Indicator: TA98, Metabolic Activation: RAT, LIVER, S-9, PHENOBARBITAL AND 5,6-BENZOFLAVONE, Method: PREINCUBATION
  mutagenic call: inactive; negative
Test System: AMES SALMONELLA TYPHIMURIUM, Strain/Indicator: TA100, Metabolic Activation: NONE, Method: PREINCUBATION
  mutagenic call: inactive; negative
Test System: AMES SALMONELLA TYPHIMURIUM, Strain/Indicator: TA100, Metabolic Activation: RAT, LIVER, S-9, PHENOBARBITAL AND 5,6-BENZOFLAVONE, Method: PREINCUBATION
  mutagenic call: inactive; negative
Test System: AMES SALMONELLA TYPHIMURIUM, Strain/Indicator: TA1535, Metabolic Activation: NONE, Method: PREINCUBATION
  mutagenic call: inactive; negative
Test System: AMES SALMONELLA TYPHIMURIUM, Strain/Indicator: TA1535, Metabolic Activation: RAT, LIVER, S-9, PHENOBARBITAL AND 5,6-BENZOFLAVONE, Method: PREINCUBATION
  mutagenic call: inactive; negative
Test System: AMES SALMONELLA TYPHIMURIUM, Strain/Indicator: TA1537, Metabolic Activation: NONE, Method: PREINCUBATION
  mutagenic call: inactive; negative
Test System: AMES SALMONELLA TYPHIMURIUM, Strain/Indicator: TA1537, Metabolic Activation: RAT, LIVER, S-9, PHENOBARBITAL AND 5,6-BENZOFLAVONE, Method: PREINCUBATION
  mutagenic call: inactive; negative
Test System: E. COLI, Strain/Indicator: WP2 UVRA, Metabolic Activation: NONE, Method: PREINCUBATION
  mutagenic call: inactive; negative
Test System: E. COLI, Strain/Indicator: WP2 UVRA, Metabolic Activation: RAT, LIVER, S-9, PHENOBARBITAL AND 5,6-BENZOFLAVONE, Method: PREINCUBATION
  mutagenic call: inactive; negative

## O=[N+]([O-])c1ccc2ccc3ccccc3c2c1
[2]
  mutagenic call: active; positive
[3]
  mutagenic call: active; positive
[4]
  mutagenic call: active; positive
[5]
  mutagenic call: active; positive
[6]
  mutagenic call: active; positive
[7]
  mutagenic call: active; positive
[8]
  mutagenic call: active; positive
[9]
  mutagenic call: active; positive
[10]
  mutagenic call: active; positive
[11]
  mutagenic call: active; positive
Test System: AMES SALMONELLA TYPHIMURIUM, Strain/Indicator: YG1021, Metabolic Activation: NONE, Method: STANDARD PLATE
  mutagenic call: active; positive
Test System: AMES SALMONELLA TYPHIMURIUM, Strain/Indicator: YG1024, Metabolic Activation: NONE, Method: STANDARD PLATE
  mutagenic call: active; positive
Test System: AMES SALMONELLA TYPHIMURIUM, Strain/Indicator: YG1026, Metabolic Activation: NONE, Method: STANDARD PLATE
  mutagenic call: active; positive
Test System: AMES SALMONELLA TYPHIMURIUM, Strain/Indicator: YG1029, Metabolic Activation: NONE, Method: STANDARD PLATE
  mutagenic call: active; positive

## C[n+]1c2cc(N)ccc2cc2ccc(N)cc21 (tested in a mixture with another compound)
[4]
  mutagenic call: inactive; negative
Test System: AMES SALMONELLA TYPHIMURIUM, Strain/Indicator: TA98, Metabolic Activation: RAT, LIVER, S-9, AROCLOR 1254, Method: STANDARD PLATE
  mutagenic call: active; positive
Test System: AMES SALMONELLA TYPHIMURIUM, Strain/Indicator: TA1537, Metabolic Activation: NONE, Method: STANDARD PLATE
  mutagenic call: inactive; negative
Test System: AMES SALMONELLA TYPHIMURIUM, Strain/Indicator: TA1537, Metabolic Activation: RAT, LIVER, S-9, AROCLOR 1254, Method: STANDARD PLATE
  mutagenic call: active; positive
[12]
  mutagenic call: inactive; negative
Test System: AMES SALMONELLA TYPHIMURIUM, Strain/Indicator: TA1538, Metabolic Activation: RAT, LIVER, S-9, AROCLOR 1254, Method: STANDARD PLATE
  mutagenic call: active; positive
Test System: CHINESE HAMSTER OVARY, Strain/Indicator: CHO-K1-BH4 (HGPRT), Metabolic Activation: RAT, LIVER, S-9, AROCLOR, Method: SUSPENSION/PLATE
  mutagenic call: active; positive

## O=[N+]([O-])c1cc2ccc3cccc4ccc(c1)c2c34
Test System: AMES SALMONELLA TYPHIMURIUM, Strain/Indicator: TA96, Metabolic Activation: NONE, Method: STANDARD PLATE
  mutagenic call: active; positive
Test System: AMES SALMONELLA TYPHIMURIUM, Strain/Indicator: TA97, Metabolic Activation: NONE, Method: STANDARD PLATE
  mutagenic call: active; positive
Test System: AMES SALMONELLA TYPHIMURIUM, Strain/Indicator: TA98(1,8-DNP6), Metabolic Activation: NONE
  mutagenic call: active; positive
[2]
  mutagenic call: active; positive
Test System: AMES SALMONELLA TYPHIMURIUM, Strain/Indicator: TA98(1,8-DNP6), Metabolic Activation: RAT, LIVER, S-9, AROCLOR 1254
  mutagenic call: inactive; negative
Test System: AMES SALMONELLA TYPHIMURIUM, Strain/Indicator: TA98(NR), Metabolic Activation: NONE
  mutagenic call: active; positive
[3]
  mutagenic call: active; positive
Test System: AMES SALMONELLA TYPHIMURIUM, Strain/Indicator: TA98(NR), Metabolic Activation: RAT, LIVER, S-9, AROCLOR 1254
  mutagenic call: active; positive
Test System: AMES SALMONELLA TYPHIMURIUM, Strain/Indicator: TA98, Metabolic Activation: NONE
  mutagenic call: active; positive
[1]
  mutagenic call: active; positive
[4]
  mutagenic call: active; positive
Test System: AMES SALMONELLA TYPHIMURIUM, Strain/Indicator: TA98, Metabolic Activation: RAT, LIVER, S-9, AROCLOR 1254
  mutagenic call: active; positive
Test System: AMES SALMONELLA TYPHIMURIUM, Strain/Indicator: TA98, Metabolic Activation: RAT, LIVER, S-9, PCB (10%), Method: PREINCUBATION
  mutagenic call: inactive; negative
Test System: AMES SALMONELLA TYPHIMURIUM, Strain/Indicator: TA100(NR), Metabolic Activation: NONE
  mutagenic call: inactive; negative
Test System: AMES SALMONELLA TYPHIMURIUM, Strain/Indicator: TA100(NR), Metabolic Activation: NONE, Method: STANDARD PLATE
  mutagenic call: inactive; negative
Test System: AMES SALMONELLA TYPHIMURIUM, Strain/Indicator: TA100(NR), Metabolic Activation: RAT, LIVER, S-9, AROCLOR 1254
  mutagenic call: active; positive
Test System: AMES SALMONELLA TYPHIMURIUM, Strain/Indicator: TA100, Metabolic Activation: NONE
  mutagenic call: active; positive
[5]
  mutagenic call: active; positive
Test System: AMES SALMONELLA TYPHIMURIUM, Strain/Indicator: TA100, Metabolic Activation: RAT, LIVER, S-9, AROCLOR 1254
  mutagenic call: active; positive
Test System: AMES SALMONELLA TYPHIMURIUM, Strain/Indicator: TA102, Metabolic Activation: NONE, Method: STANDARD PLATE
  mutagenic call: inactive; negative
Test System: AMES SALMONELLA TYPHIMURIUM, Strain/Indicator: TA104, Metabolic Activation: NONE
  mutagenic call: active; positive
Test System: AMES SALMONELLA TYPHIMURIUM, Strain/Indicator: TA104, Metabolic Activation: NONE, Method: STANDARD PLATE
  mutagenic call: active; positive
Test System: AMES SALMONELLA TYPHIMURIUM, Strain/Indicator: TA104, Metabolic Activation: RAT, LIVER, S-9, AROCLOR 1254
  mutagenic call: active; positive
Test System: AMES SALMONELLA TYPHIMURIUM, Strain/Indicator: TA1535, Metabolic Activation: NONE, Method: STANDARD PLATE
  mutagenic call: inactive; negative
[12]
  mutagenic call: active; positive
[6]
  mutagenic call: active; positive
[7]
  mutagenic call: active; positive
[8]
  mutagenic call: active; positive
[9]
  mutagenic call: active; positive
[10]
  mutagenic call: active; positive
[11]
  mutagenic call: active; positive
